These results are taken from US6509355B1, “Treatment of disorders of the outer retina” (Alcon Laboratories, Inc., priority 1998, dated 2003).

Data set [1] addresses NR1A/NR2B subtype of the polyamine binding site of the NMDA receptor (Homo sapiens, UniProt Q05586+Q13224). The following applies: cited from earlier work.
For data set [2], the system named is photo-oxidative induced retinopathy. As to the kind of experiment: Photo-oxidative induced retinopathy: 6-hour blue light exposure, ERG after 5-day recovery. An excerpt: Photic retinopathy results from excessive excitation of the retinal pigment epithelium and neuroretina by absorption of visible or near ultraviolet radiation. Lesion severity is dependent upon wavelength, irradiance, exposure duration, species, ocular pigmentation, and age. Damage may result from peroxidation of cellular membranes, inactivation of mitochondrial enzymes such as cytochrome oxidase, or increased intracellular calcium. Cellular damage resulting from photo-oxidative stress leads to cell death by apoptosis, (Shahinfar, S., Edward. D. P. and Tso, M. O. (1991), A pathologic study of photoreceptor cell death in retinal photic injury. Current Eye Research, 10:47-59: Abler, A. S., Chang, C. J., Fu, J. and Tso, M. O. (1994), Photic injury triggers apoptosis of photoreceptor cells. Investigative Ophthalmology & Visual Science, 35(Suppl):1517). Oxidative stress induced apoptosis has been implicated as a cause of many ocular pathologies, including, iatrogenic retinopathy, macular degeneration, retinitis pigmentosa and other forms of heredodegenerative disease, ischemic retinopathy, retinal tears, retinal detachment, glaucoma and retinal neovascularization (Chang, C. J., Lai, W. W., Edward, D. P. and Tso, M. O. (1995), Apoptotic photoreceptor cell death after traumatic retinal detachment in humans, Archives of Ophthalmology, 113:880-886: Portera-Cailliau, C., Sung, C. H., Nathans, J. and Adler, R. (1994), Apoptotic photoreceptor cell death in mouse models of retinitis pigmentosa, Proceedings of National Academy of Science (U.S.A.), 91:974-978; Buchi, E. R. (1992), Cell death in the rat retina after a pressure-induced ischaemia-reperfusion insult: an electron microscopic study. I. Ganglion cell layer and inner nuclear layer, Experimental Eye Research, 55:605-613; Quigley, H. A., Nickells. R. W., Kerrigan, L. A., Pease, M. E., Thibault, D. J. and Zack, D. J. (1995), Retinal ganglion cell death in experimental glaucoma and after axotomy occurs by apoptosis, Investigative Ophthalmology & Visual Science, 36:774-786). […] Alan R. Liss, Inc., New York; Collier, R., W. Waldron and Zigman, S. (1989), Temporal sequence of changes to the gray squirrel retina after near-UV exposure, Investigative Ophthalmology & Visual Science, 30:631-637), non-human primates (Tso, M. O. M. (1973), Photic maculopathy in rhesus monkey. A light and electron microscopic study. Investigative Ophthalmology & Visual Science, 12:17-34; Ham, W. T., Jr., Ruffolo, J. J., Jr., Mueller, H. A. and Guerry, D., III. (1980), The nature of retinal radiation damage: dependence on wavelength, power level and exposure time, Vision Research, 20:1105-1111; Sperling, H. G., Johnson, C. and Harwerth, R. S. (1980), Differential spectral photic damage to primate cones, Vision Research, 20:1117-1125: Sykes, S. M., Robison, W. G., Jr., Waxler, M. and Kuwabara, T. (1981), Damage to the monkey retina by broad spectrum fluorescent light, Investigative Ophthalmology & Visual Science, 20:425-434; Lawwill, T. (1982), Three major pathologic processes caused by light in the primate retina: A search for mechanisms, Transactions of the American Ophthalmology Society, 80:517-577), and man (Marshall, J. Hamilton, A. M. and Bird, A. C. (1975), Histopathology of ruby and argon laser lesions in monkey and human retina, British Journal of Ophthalmology, 59:610-630; Green, W. R. and Robertson, D. M. (1991), Pathologic findings of photic retinopathy in the human eye. American Journal of Ophthalmology, 112:520-27).

Data set [3] concerns retinal laser burn. As to the kind of experiment: Retinal laser burn spread damage: argon laser, lesion area in outer nuclear layer after 48 hours. It is filed as in vivo, Pigmented Long Evans rats. An excerpt: The eye is exposed to high-energy laser radiation during the performance of retinal photocoagulation therapy (grid, focal and […]) or during photodynamic therapy. This type of therapy is often employed during treatment of choroidal neovascularization, proliferative stages of diabetic retinopathy, retinopathy of prematurity, or to repair retinal holes or […]. Associated with this laser therapy is tissue destruction leading to vision deterioration. […] It is believed that this vision loss results directly from the expansion of the laser-induced lesion to surrounding normal neurosensory retina and RPE. Singlet oxygen and other reactive oxygen species as well as cytokines are generated in the area of the laser burn and thought to migrate laterally to cause collateral retinal damage. Retinal morphology changes in this area are similar to changes in our photo-oxidative retinopathy paradigm. […] Pigmented Long Evans rats were randomly assigned to control, vehicle or drug dosed groups. […] After a 48-hour recovery period, eyes were fixed, dehydrated, and embedded in plastic resin. Histological assessment of laser burns was performed by flatmounting the retina and sectioning the tissue in a plane tangential to the nerve fiber layer. Using this technique, the lesion area in the outer nuclear layer could be calculated using an image analysis system. […] The laser bum center was marked by; complete closure of all capillaries, arterioles and venuoles; perforation of Bruch's membrane; pyknosis and necrosis of all photoreceptor nuclei; and destruction of inner and outer segments. Spread of the lesion into peripheral retina consisted of shortening of outer segments, inner segment swelling, clumping of melanin granules in the RPE and choroid, and vacuolization of the RPE.

Data set [4] concerns NMDA receptor. The data set is described as follows: Binding affinity to the NMDA receptor. The following applies: order of magnitude only.
Data set [5] has as its system light induced functional or morphological changes. As to the kind of experiment: Light damage paradigms (light induced damage paradigm). The following applies: in vivo. How it is done:
Eliprodil was evaluated in our light induced damage paradigm, a model of retinal degenerative diseases such as retinitis pigmentosa and age-related macular degeneration.

For data set [6] the following is noted: Drugs of the Future 1994; cited from earlier work.
The conditions of data set [7]: Drugs of the Future 1994; cited from earlier work. This is another data set of the same source.
Data set [8] concerns laser induced thermal burns to the retina. The following applies: cited from earlier work.
Data set [9] concerns mechanical stress induced ischemia reperfusion. The following applies: Arch Ophthal 1993; cited from earlier work.

Sequence of NR1A/NR2B subtype of the polyamine binding site of the NMDA receptor (Q13224 27-1484, other chains not shown): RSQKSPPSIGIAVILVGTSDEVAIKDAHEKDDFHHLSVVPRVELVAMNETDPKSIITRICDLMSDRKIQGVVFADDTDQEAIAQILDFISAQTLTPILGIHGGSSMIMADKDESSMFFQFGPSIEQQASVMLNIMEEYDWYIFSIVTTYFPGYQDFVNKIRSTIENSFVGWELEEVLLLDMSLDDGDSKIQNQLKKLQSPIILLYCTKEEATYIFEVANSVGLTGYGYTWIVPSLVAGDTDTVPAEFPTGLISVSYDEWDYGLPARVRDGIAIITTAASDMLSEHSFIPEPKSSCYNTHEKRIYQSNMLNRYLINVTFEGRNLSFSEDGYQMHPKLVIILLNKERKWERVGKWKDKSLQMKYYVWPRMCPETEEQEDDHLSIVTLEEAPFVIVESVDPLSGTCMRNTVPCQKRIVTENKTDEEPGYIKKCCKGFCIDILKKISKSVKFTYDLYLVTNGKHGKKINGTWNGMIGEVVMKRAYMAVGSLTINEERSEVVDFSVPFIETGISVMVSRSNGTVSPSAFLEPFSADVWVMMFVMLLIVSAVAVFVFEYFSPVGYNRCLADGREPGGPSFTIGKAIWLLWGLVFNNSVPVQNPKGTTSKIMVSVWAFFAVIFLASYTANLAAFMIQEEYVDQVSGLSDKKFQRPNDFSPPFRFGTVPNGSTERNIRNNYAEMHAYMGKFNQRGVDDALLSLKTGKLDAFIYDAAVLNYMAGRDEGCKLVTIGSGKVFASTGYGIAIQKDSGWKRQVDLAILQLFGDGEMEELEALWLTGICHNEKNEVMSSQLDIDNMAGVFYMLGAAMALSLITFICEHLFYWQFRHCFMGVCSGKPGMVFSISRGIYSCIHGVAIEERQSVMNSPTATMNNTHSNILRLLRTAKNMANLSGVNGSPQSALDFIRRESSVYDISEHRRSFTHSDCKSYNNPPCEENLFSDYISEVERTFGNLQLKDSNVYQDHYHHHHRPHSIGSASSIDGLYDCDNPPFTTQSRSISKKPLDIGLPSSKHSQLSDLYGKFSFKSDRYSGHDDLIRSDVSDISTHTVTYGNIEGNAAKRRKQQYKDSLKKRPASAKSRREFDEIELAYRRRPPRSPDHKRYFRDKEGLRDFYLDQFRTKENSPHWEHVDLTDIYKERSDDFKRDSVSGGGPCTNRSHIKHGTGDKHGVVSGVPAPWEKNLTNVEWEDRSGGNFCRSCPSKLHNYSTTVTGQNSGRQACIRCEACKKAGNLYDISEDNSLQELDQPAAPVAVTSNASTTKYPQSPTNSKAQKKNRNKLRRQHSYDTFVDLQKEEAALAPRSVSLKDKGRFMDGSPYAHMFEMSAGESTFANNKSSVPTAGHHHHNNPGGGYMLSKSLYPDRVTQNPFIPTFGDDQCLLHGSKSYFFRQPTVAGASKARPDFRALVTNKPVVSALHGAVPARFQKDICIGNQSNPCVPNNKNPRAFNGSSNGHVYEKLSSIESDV

Turning to `C[C@@H]([C@@H](O)c1ccc(O)cc1)N1CCC(O)(c2ccccc2)CC1` [CP-101,606], the “subtype preference of NMDA receptor block” value (shortened to “subtype preference”) in data set [1] is “preferentially block”.
Regarding `CC(C(O)c1ccc(O)cc1)N1CCC(Cc2ccccc2)CC1` (centres unmarked) [ifenprodil], the “subtype preference” value in [1] is reported as “preferentially block”.
As to `O[C@@H](CN1CCC(Cc2ccc(F)cc2)CC1)c1ccc(Cl)cc1` [R-eliprodil], the “potency relative to eliprodil (racemic)” value in data set [2] (rat, in vivo) is on record as “two-fold less potent”. Further, in data set [2] (rat, in vivo, ip, 20 mg/kg), the “Maximum a-wave response, % of normal” value is reported as 38%; the “Maximum b-wave response, % of normal” value was 36%; the “protection of outer and inner retina function against light induced retinal degeneration” value is recorded as “No significant protection”. In [2] (rat, in vivo, ip, 40 mg/kg), the “Response amplitudes, fold higher than vehicle dosed rats” value is “about 2 fold”; the “maximum a-wave response amplitude” value came out at 397.25 μV; the “maximum b-wave response amplitude” value was 812.87 μV; the “protection of outer and inner retina function against light induced retinal degeneration” value is on record as “significant protection”. Further, the “response amplitudes, % of normal” value in [2] (rat, in vivo, ip, 40 mg/kg) is listed as ~50%. Also, in data set [2] (rat, in vivo, ip, 80 mg/kg), the “Maximum a- and b-wave responses, % of normal” value is listed as “approximately 40%”; the “protection of outer and inner retina function against light induced retinal degeneration” value was “No significant retinal protection”. For the same compound, in data set [3] (20 mg/kg IP), the “lesion area smaller than in vehicle dosed rats” value came to 16% and the “significance of lesion area difference from vehicle” value is “not significantly different”. Besides, in data set [3] (40 mg/kg IP), the “Laser burn lesion area” value is given as 36,016 μ^2, the “lesion area smaller than in vehicle dosed rats” value was found to be 28% and the “significance of lesion area difference from vehicle” value was “significantly diflerent”. Moreover, the “reduction of collateral retinal damage around the laser burn (summary)” value in [3] (summary) was “significant reduction”. In addition, in data set [4], the “binding affinity to the NMDA receptor” value was “nanomolar”.
As to `OC(CN1CCC(Cc2ccc(F)cc2)CC1)c1ccc(Cl)cc1` (racemic) [Eliprodil, 2-[4-(4-fluorobenzyl)-piperidino]-1-(4-chlorophenyl)ethanol], the “dose dependence of protection of outer and inner retina function” value in data set [2] (rat, in vivo) is recorded as “dose-dependent protection”. Also, in data set [2] (rat, in vivo, ip, 2 mg/kg), the “ERGs, % of normal” value is on record as “approximately 32%”; the “protection of outer and inner retina function against light induced retinal degeneration” value is on record as “not significantly different than vehicles”. Further, in [2] (rat, in vivo, ip, 10 mg/kg), the “ERGs, % of normal” value was “approximately 32%”; the “protection of outer and inner retina function against light induced retinal degeneration” value is on record as “not significantly different than vehicles”. In data set [2] (rat, in vivo, ip, 20 mg/kg), the “ERG a-wave, % of normal” value is 57%; the “ERG a-wave, fold higher than vehicle dosed rats” value is 2.4 fold; the “ERG b-wave, % of normal” value was 53%; the “ERG b-wave, fold higher than vehicle dosed rats” value is listed as 2.2 fold. In data set [2] (rat, in vivo, ip, 20 mg/kg), the “Maximum a-wave response amplitude, fold higher than vehicle dosed rats” value is reported as 2.4 fold; the “maximum a-wave response amplitude” value came out at 395.82 μV; the “response amplitudes, % of normal” value is reported as “approximately 60%”. In data set [2] (rat, in vivo, ip, 40 mg/kg), the “Maximum a-wave response amplitude, fold higher than vehicle dosed rats” value is given as 2.25 fold; the “maximum a-wave response amplitude” value is reported as 419.85 μV; the “protection of outer and inner retina function against light induced retinal degeneration” value was “significant protection”; the “response amplitudes, % of normal” value is on record as “approximately 60%”. For the same compound, in data set [3] (10 mg/kg IP), the “Laser burn lesion area” value is 55,411.67 μ^2 and the “reduction in laser lesion burn size” value is “No reduction”. Moreover, in data set [3] (IP, dose not given), the “reduction of retinal burn area compared to vehicle” value is “approximately 60%” and the “significance of burn area reduction compared to vehicle” value was “significantly reduced”. Also, the average burn area in [3] (IP, dose not given, vehicle 55,243.65, control 50,627.07) was 22,406 μ^2. Also, in [3] (summary), the “efficacy compared to R-eliprodil” value is listed as “twice as efficacious”, the “potency compared to R-eliprodil” value is on record as “two fold more potent” and the “reduction of collateral retinal damage around the laser burn (summary)” value was “significant reduction”. Further, the “binding affinity to the NMDA receptor” value in data set [4] is listed as “nanomolar”. Further, in data set [5], the “preventing light induced functional or morphological changes” value was “completely protected”. Further, the “subtype preference” value in data set [1] is recorded as “preferentially block”. Further, in data set [6], the “crossing of the blood-brain barrier” value is “effectively crosses the blood-brain barrier” and the oral bioavailability result is “orally bioavailable”. Further, the “incidence of adverse effects upon administration” value in data set [7] is recorded as “low incidence of adverse effects”.
On to `C[C@]12N[C@H](Cc3ccccc31)c1ccccc12` [MK-801, reference compound], for which, in [2] (Experiment 1), the “dose dependence of protection of outer and inner retina function” value is given as “dose-dependent protection”. The “protection of outer and inner retina function against light induced retinal degeneration” value is given as “No significant protection” in [2] (Experiment 1, 2 mg/kg IP, vs vehicle); “No significant protection” in [2] (Experiment 1, 10 mg/kg IP, vs vehicle); “significant protection” in data set [2] (Experiment 1, 20 mg/kg IP at 48, 24, 0 h before light, vs vehicle). For the same compound, the “ERG responses compared with control (normal)” value in data set [2] (Experiment 1, 20 mg/kg IP) was “not significantly different than control”. Moreover, the “maximum a-wave response amplitude” value in data set [2] (Experiment 1, 20 mg/kg IP, controls 734.05 μV) was found to be 537.93 μV. Further, the “maximum b-wave response amplitude” value in [2] (Experiment 1, 20 mg/kg IP, controls 1807 μV) amounted to 1449.77 μV. For the same compound, the “rescue of RPE and photoreceptor cells (summary)” value in data set [2] (summary of Experiments 1 and 2) is recorded as “Complete protection”. In addition, the “prevention of photoreceptor loss” value in [8] (3 and 20 days post laser exposure) is recorded as “did not significantly prevent”. The “preventing the spread of laser induced thermal burns to the retina” value in data set [8] (at 60 days) was “minimally effective”.
Take `COc1ccc2c(c1)[C@]13CCCC[C@@H]1[C@H](C2)N(C)CC3` [dextromethorphan]: in [9], the “protection of inner retina function and RPE function” value is “moderately protected”; the “protective effect for outer retina function” value is listed as “no significant protective effect”.
